According to ChEMBL document CHEMBL1201862, “PubChem BioAssay data set” (2004):
Activity calls are given as the source filed them. Cut-off read from the data, not from the text of the source, for most assays here: actives have a measured EC50 and inactives only a lower limit.

Columns and labels:
Paired box protein Pax-8 = Paired box protein Pax-8 (Homo sapiens, UniProt Q06710); test: PAX8 transcriptional activity inhibition in RMG-I – RMG-I cells, luciferase, cherry-pick, dose response (AID 687027); assay type: functional, cell-based;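 note: luciferase reporter driven by Pax8 target thyroperoxidase promoter measured by SteadyGlo luminescence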
Paired box protein Pax-8, sequence (Q06710 whole entry): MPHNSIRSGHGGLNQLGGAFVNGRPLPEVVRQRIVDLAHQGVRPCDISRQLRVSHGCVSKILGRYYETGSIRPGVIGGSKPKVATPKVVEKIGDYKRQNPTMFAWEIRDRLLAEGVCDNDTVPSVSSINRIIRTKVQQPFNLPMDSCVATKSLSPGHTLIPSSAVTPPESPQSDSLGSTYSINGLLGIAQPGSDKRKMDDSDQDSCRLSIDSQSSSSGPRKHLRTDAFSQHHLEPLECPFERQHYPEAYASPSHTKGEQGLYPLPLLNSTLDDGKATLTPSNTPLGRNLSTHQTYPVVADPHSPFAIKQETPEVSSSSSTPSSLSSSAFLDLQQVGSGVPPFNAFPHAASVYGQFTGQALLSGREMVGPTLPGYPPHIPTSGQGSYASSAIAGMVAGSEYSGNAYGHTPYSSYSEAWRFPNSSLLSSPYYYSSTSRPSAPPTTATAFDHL

[1] = OVCAR8 cell viability loss – plate reader, dry powder samples, PAX8 project, dose response (AID 743197); assay type: functional, cell-based; details: OVCAR-8
Fatty acid synthase [2] = target: T1, Fatty acid synthase (Homo sapiens, UniProt P49327); test: inhibition of human FAS-TE enzyme activity – biochemical, endpoint fluorescence intensity, uHTS hits, dose response (AID 624327); assay type: functional;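 note: fluorescence from hydrolysis of an O-methyl fluorescein acyl ester substrate by the enzyme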
T1 sequence (P49327 whole entry): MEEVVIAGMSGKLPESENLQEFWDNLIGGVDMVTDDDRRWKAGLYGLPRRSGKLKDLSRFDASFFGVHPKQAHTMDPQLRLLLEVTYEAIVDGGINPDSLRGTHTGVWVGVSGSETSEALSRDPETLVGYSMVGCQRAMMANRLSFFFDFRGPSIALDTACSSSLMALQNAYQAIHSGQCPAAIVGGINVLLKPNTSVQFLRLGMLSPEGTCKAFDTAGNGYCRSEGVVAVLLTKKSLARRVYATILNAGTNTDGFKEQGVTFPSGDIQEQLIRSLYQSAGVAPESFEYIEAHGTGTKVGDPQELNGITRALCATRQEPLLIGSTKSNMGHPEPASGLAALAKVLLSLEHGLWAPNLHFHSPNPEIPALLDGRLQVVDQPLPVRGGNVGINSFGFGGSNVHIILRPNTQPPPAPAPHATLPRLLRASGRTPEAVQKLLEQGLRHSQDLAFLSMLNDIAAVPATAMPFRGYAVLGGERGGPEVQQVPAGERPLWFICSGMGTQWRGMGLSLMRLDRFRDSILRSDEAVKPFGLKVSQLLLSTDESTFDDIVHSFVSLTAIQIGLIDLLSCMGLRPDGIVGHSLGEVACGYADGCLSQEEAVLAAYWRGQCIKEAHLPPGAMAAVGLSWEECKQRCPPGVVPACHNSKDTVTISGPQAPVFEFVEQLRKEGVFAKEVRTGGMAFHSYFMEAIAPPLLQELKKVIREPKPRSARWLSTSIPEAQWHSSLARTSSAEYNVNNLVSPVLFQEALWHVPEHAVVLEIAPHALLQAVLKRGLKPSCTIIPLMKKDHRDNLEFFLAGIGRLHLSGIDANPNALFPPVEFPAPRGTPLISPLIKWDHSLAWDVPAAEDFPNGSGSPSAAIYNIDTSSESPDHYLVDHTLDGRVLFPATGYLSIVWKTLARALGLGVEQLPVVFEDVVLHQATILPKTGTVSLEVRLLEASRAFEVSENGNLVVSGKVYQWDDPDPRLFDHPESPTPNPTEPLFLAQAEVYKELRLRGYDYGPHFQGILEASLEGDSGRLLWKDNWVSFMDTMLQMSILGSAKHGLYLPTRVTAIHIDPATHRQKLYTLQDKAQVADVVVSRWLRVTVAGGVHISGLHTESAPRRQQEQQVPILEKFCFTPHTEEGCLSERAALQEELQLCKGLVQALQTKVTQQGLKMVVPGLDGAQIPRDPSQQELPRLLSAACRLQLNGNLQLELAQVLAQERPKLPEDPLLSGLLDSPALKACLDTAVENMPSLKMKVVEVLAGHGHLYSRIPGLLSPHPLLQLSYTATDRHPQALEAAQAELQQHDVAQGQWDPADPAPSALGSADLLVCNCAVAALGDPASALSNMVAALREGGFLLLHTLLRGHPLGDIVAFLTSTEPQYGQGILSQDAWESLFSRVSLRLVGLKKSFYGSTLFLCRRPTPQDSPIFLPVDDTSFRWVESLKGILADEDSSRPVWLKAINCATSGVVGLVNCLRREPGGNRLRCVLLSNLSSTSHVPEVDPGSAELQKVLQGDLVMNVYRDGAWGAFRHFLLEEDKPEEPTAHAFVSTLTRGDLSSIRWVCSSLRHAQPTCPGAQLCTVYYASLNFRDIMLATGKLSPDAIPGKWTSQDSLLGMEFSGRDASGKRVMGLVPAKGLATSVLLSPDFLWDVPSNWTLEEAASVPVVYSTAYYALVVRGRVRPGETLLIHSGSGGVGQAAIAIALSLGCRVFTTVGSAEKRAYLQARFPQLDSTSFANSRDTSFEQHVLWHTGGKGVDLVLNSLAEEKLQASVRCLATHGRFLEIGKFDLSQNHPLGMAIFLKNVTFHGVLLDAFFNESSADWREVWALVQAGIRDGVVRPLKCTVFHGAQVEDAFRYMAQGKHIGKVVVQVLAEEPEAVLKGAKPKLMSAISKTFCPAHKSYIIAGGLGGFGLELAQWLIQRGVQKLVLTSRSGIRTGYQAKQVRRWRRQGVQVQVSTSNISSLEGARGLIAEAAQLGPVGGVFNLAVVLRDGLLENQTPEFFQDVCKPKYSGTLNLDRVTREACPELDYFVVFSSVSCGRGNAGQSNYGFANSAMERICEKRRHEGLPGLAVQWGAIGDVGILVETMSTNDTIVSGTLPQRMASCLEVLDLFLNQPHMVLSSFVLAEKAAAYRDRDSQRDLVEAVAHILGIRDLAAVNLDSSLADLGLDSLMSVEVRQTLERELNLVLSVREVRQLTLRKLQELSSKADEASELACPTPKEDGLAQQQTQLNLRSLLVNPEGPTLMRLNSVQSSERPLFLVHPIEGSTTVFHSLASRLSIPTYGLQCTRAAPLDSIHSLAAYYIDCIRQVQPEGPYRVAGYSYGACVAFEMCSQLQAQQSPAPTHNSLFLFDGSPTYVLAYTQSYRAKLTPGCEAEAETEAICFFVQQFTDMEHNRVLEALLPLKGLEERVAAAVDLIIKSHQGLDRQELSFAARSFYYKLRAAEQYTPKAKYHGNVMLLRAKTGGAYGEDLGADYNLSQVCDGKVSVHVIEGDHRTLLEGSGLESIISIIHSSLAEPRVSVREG

Fatty acid synthase [3] = target: T1, Fatty acid synthase; test: inhibition of human FAS-TE enzyme activity – biochemical, kinetic fluorescence intensity, dose response (AID 624326); assay type: functional;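 note: rate of fluorescence rise from hydrolysis of a fluorogenic O-methyl fluorescein ester substrate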
[4] = test system: Streptococcus sp. 'group A'; test: Streptococcus pyogenes SK(-)GAS viability under kanamycin – luminescence, BacTiterGlo, confirmation, counter-screen for streptokinase expression inhibitor project, dose response (AID 1900); assay type: functional, organism-based
Streptokinase A = target: T2, Streptokinase A (Streptococcus pyogenes serotype M1, UniProt P10520); test: viability-normalized secreted streptokinase activity reduction – plasminogen activation absorbance, OD405, dose response (AID 1914); assay type: functional, Streptococcus pyogenes M1 GAS;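 note: secreted streptokinase activity via plasminogen activation per viability signal from cell pellet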
T2 sequence (P10520 whole entry): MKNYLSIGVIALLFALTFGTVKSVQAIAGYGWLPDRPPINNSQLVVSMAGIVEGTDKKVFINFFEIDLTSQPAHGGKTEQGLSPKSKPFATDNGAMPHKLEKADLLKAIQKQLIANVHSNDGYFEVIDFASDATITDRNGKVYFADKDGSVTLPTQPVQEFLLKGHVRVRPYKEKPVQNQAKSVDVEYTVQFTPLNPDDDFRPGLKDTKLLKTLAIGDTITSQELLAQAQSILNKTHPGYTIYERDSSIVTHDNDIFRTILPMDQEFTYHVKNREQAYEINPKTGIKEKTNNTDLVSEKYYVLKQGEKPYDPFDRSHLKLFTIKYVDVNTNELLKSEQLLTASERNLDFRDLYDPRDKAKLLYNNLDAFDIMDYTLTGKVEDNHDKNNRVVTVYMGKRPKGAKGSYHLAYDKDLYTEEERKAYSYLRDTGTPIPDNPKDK

Streptococcus = test: GAS UMAA2166 growth inhibition – luminescence, BacTiterGlo, counter-screen for streptokinase expression inhibitor project, dose response (AID 1915); assay type: functional, organism-based;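 note: potency for reduction of bacterial viability or growth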
[5] = target: T3, Carboxy-terminal domain RNA polymerase II polypeptide A small phosphatase 1 (Homo sapiens, UniProt Q9GZU7); test: CTDSP1 inhibitors, concentration-response, biochemical, absorbance readout, ultra-high-throughput screen actives (AID 540297); assay type: functional
T3 sequence (Q9GZU7 whole entry): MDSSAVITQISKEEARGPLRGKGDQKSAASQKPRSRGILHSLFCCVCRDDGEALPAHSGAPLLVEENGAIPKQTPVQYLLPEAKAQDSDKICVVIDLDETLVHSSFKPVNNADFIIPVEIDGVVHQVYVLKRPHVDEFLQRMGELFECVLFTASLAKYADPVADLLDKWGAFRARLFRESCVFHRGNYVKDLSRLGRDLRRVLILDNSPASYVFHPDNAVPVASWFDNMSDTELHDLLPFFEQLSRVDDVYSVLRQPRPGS

[6] = THP-1 cell cytotoxicity, dose response, cytotoxicity control for non-replicating M. tuberculosis project (AID 489025); assay type: functional
cells [7] = assay type: functional
H9c2 = test: cells; assay type: functional, cell-based; details: Rattus norvegicus, H9c2, Myocardium;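 note: confirmatory concentration-response retest of ultra-high-throughput screening hits for modulation of myocardial damage; cell death induced by hydrogen peroxide oxidative stress; compound pretreatment for 60 min then peroxide exposure for 2 h; potency is for protecting the cells against peroxide damage rather than for killing them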
[8] = target: T4, High affinity choline transporter 1 (Homo sapiens, UniProt Q9GZV3); test: human choline transporter blockers, potency – cell-based, 5-point CRC, membrane potential dye, dose response (AID 504840); assay type: functional
T4 sequence (Q9GZV3 whole entry): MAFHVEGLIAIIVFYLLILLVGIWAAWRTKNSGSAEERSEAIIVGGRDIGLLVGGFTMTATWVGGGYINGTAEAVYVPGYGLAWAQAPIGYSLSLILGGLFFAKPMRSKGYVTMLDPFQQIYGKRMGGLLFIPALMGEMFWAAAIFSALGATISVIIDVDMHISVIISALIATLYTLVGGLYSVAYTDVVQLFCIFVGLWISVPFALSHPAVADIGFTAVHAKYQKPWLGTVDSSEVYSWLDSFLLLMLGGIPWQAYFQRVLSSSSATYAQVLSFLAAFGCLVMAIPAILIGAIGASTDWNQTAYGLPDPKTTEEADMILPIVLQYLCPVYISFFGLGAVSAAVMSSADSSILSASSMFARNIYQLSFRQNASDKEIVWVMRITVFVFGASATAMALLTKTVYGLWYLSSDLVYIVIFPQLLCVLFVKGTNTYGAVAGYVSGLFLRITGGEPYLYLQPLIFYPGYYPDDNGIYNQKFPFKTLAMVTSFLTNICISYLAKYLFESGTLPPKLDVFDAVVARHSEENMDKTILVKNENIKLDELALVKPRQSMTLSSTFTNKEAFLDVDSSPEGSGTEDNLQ

cells [9] = assay type: functional, cell-based
cells [10] = assay type: functional, cell-based; remark: listed apart in the source
[11] = Trypanosoma cruzi growth suppression in host cells – NIH3T3 host cells, beta-gal luminescence, confirmation (AID 2044); assay type: functional, cell-based;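 note: intracellular parasites grown in NIH/3T3 mouse fibroblasts as host cells; luminescent beta-galactosidase reporter signal from transgenic T. cruzi replicating inside host cells; inhibitors lower the luminescence signal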
[12] = NIH3T3 cell viability loss – ATP luminescence, mouse fibroblasts, counter-screen, dose response (AID 2010); assay type: functional, cell-based;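 note: cells exposed to compound for about 90 hours before reading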
[13] = Luminescence Cell-Based Dose Confirmation HTS to Identify Activators of 5'UTR Stem-Loop Driven Alpha-Synuclein mRNA Translation in H4 Neuroglioblastoma Cells. [Related pubchem assays: 1829 (Project Summary), 1814 (Primary HTS)]; assay type: functional
[14] = Luminescence Cell-Based Dose Response HTS to Identify Activators of Luciferase Translation or Activity in H4 […] Cells. [Related pubchem assays: 1829 (Project Summary), 1814 (Primary HTS)]; assay type: functional
H4 = test: Luminescence Cell-Based Dose Response HTS to Identify Activators of 5'UTR Stem-Loop Driven Prion Protein mRNA Translation in H4 Neuroglioblastoma Cells. [Related pubchem assays: 1829 (Project Summary), 1814 (Primary HTS)]; assay type: functional; details: Homo sapiens
[15] = NIH-3T3 fibroblast cytotoxicity, dose response, cytotoxicity control, cell-based, fluorescence, Alamar Blue, secondary assay (AID 2327); assay type: functional;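 note: NIH-3T3 mouse fibroblasts cultured with fluconazole at 8 µg/mL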
[16] = fluconazole-exposed Candida albicans growth modulators – fluorescence, retest, confirmation (AID 2467); assay type: functional, cell-based
[17] = target: T5, Heat shock factor protein 1 (Mus musculus, UniProt P38532); test: decrease of HSF1-responsive luciferase luminescence – cell-based, NIH3T3, dose retest, confirmation (AID 2382); assay type: functional;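 note: NIH3T3 fibroblasts with HSF1-driven luciferase reporter stressed by proteasome inhibitor MG132; luminescence from HSF1-driven luciferase expression after 8 hours of MG132 stress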
T5 sequence (P38532 whole entry): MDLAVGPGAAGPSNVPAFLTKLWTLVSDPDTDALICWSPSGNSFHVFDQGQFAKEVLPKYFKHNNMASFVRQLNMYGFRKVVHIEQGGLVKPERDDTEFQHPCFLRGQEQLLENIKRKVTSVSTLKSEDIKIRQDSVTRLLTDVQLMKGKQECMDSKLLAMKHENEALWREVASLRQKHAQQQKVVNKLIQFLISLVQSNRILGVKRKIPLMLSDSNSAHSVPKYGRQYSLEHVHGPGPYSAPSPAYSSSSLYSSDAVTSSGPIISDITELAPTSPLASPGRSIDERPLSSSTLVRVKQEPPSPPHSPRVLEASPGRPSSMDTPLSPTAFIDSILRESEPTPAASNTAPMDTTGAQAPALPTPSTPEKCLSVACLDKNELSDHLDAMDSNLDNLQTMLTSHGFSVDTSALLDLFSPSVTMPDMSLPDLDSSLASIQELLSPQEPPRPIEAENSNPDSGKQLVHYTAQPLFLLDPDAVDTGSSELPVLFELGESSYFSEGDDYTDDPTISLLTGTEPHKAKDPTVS

C[C@@H]1CN([C@@H](C)CO)C(=O)c2c(c3ccccc3n2C)-c2ccccc2CO[C@H]1CN(C)S(=O)(=O)c1cccc(F)c1
AC50 (Paired box protein Pax-8): 13.7 µM (active)
AC50 [1]: 46.4 µM (active)

O=C(CSc1ccc([N+](=O)[O-])cc1)NCC1CCCCC1
IC50 (Fatty acid synthase [2]): 8.2 µM (active)
IC50 (Fatty acid synthase [3]): 11.9 µM (active)

O=C(Cn1cc([N+](=O)[O-])ccc1=O)NCC1COc2ccccc2O1 (stereo not given)
IC50 (Fatty acid synthase [2]): 10.1 µM (active)
IC50 (Fatty acid synthase [3]): 11.5 µM (active)

CN1c2ccc(C3=CCCCC3)cc2[C@H]2[C@H](CCN2C(=O)NC2CCCCC2)[C@@H]1CO
AC50 (Paired box protein Pax-8): 12.3 µM (active)
AC50 [1]: > 70 µM (inactive)

C/C(=N\NC(=O)c1cc(Br)ccc1O)c1cccc(NC(=O)c2ccccc2F)c1
EC50 [4]: 3.04 µM (active)
EC50 (Streptokinase A): > 150 µM (not active)
EC50 (Streptococcus): 74 µM (active)
IC50 [5]: 2.94 µM (active)

Cc1ccc(C(=O)N/N=C\c2ccc(-c3ccc(Cl)cc3)o2)cn1
CC50 [6]: 30 µM (active)
IC50 (cells [7]): > 50 µM (active)
IC50 (H9c2): > 79 µM (inactive)

Nc1c(C(=O)OC2CCCCC2)c2nc3ccccc3nc2n1CC1CCCO1 (stereo not given)
IC50 [8]: 13.2 µM (active)

CCN(CC)CCCn1c2c(c(SCC(=O)N3CCc4ccccc43)nc1=O)CCC2
IC50 [8]: 10.9 µM (active)

CCC1Oc2ccccc2N(CC(=O)Nc2ccccc2OC)C1=O (stereo not given)
EC50 (cells [9]): > 350 µM (not active)
EC50 (cells [10]): > 350 µM (not active)

CN(/N=C/c1ccc([N+](=O)[O-])o1)c1ccccc1
EC50 [11]: 0.665 µM (active)
EC50 [12]: > 60 µM (not active)
IC50 [8]: 12.9 µM (active)

O=C(CSc1nnc(COc2ccccc2)n1Cc1ccco1)NCc1ccco1
IC50 [5]: 7.21 µM (active)

Cc1c(CCC(=O)O)c(=O)oc2cc(OCc3ccccc3Br)ccc12
IC50 [5]: 10.6 µM (active)

Clc1ccc(OCCOCCN2CCc3ccccc3C2)c(Cl)c1
CC50 [6]: > 40 µM (active)
IC50 (cells [7]): 18.6 µM (active)

COc1ccc(NC(=O)CCS(=O)(=O)c2ccc3c(c2)CCN3C(C)=O)cc1
EC50 (cells [9]): > 350 µM (not active)
EC50 (cells [10]): > 350 µM (not active)

CCC(Oc1ccc2c(c1)C(=O)CC(C)(C)O2)C(=O)NCCN1CCCCCC1 (stereo not given)
IC50 [8]: 15.8 µM (active)

O=C(O)/C=C\C(=O)Nc1ccccc1C#Cc1ccc(Br)cc1
EC50 [13]: 114 µM (active)
EC50 [14]: 19.7 µM (active)
EC50 (H4): 7.95 µM (active)

CSCC[C@@H](C(=O)NCCCCCCCCCCC(=O)N1CCN(C(=O)OC(C)(C)C)CC1)n1cc(CCO)nn1
IC50 [8]: 14.5 µM (active)

O=C(O)CCCCCN1C(=O)/C(=C/c2nc3ccccc3[nH]2)SC1=S
EC50 [15]: > 150 µM (inactive)
EC50 [16]: 5.71 µM (active)
IC50 [5]: 6.09 µM (active)

CC1CCN(Cc2nc(-c3ccccc3)no2)CC1
EC50 [13]: 0.272 µM (active)
EC50 [14]: < 0.1 µM (active)
EC50 (H4): 25.8 µM (active)

Cc1ccc(-c2csc(C3=C(N)N(NC(=O)c4ccco4)CC3=O)n2)cc1
IC50 [5]: 12.9 µM (active)

CC1(C)Cc2c(C#N)c(SCCC#N)nc(N3CCOCC3)c2CO1
EC50 (cells [9]): > 350 µM (not active)
EC50 [17]: > 195 µM (not active)
EC50 (cells [10]): > 350 µM (not active)

O=C(Nc1ccc(NC(=O)C2CC2)nc1)c1cccc(F)c1
EC50 [13]: 13.1 µM (active)
EC50 [14]: 11.2 µM (active)
EC50 (H4): > 120 µM (not active)

Clc1cccc(Cl)c1Cn1nnc(N2CCCC2)n1
EC50 [13]: 12 µM (active)
EC50 [14]: 13.8 µM (active)
EC50 (H4): 20.3 µM (active)

O/N=C1/C2C3CC4C5C3C1C5C1(OCCO1)C42 (stereo not given)
EC50 (cells [9]): > 350 µM (not active)
EC50 (cells [10]): > 350 µM (not active)

OCCC#Cc1ccc(CN2CCN(Cc3ccccc3)C(CCO)C2)cc1 (stereo not given)
EC50 (cells [9]): > 350 µM (not active)
EC50 (cells [10]): > 350 µM (not active)

COc1ccc(-c2cc3c(=O)n(CC(=O)NCc4ccc(F)cc4)ncn3n2)cc1
EC50 [13]: 1.33 µM (active)
EC50 [14]: 0.124 µM (active)

Cc1ccc(NC(=O)CCNC(=O)c2ccc([N+](=O)[O-])cc2)cc1C
IC50 (Fatty acid synthase [2]): 9.54 µM (active)
IC50 (Fatty acid synthase [3]): 9.29 µM (active)

N#Cc1c(/N=C/c2cc(Br)cs2)sc2c1CCC2
EC50 [13]: > 120 µM (not active)
EC50 [14]: 33.6 µM (active)
EC50 (H4): 11.2 µM (active)

CC(NC(=O)c1cccc(OC2CCN(C(=O)C3CC3)CC2)c1)c1ccc(F)cc1 (stereo not given)
IC50 [8]: 17.4 µM (active)

CC(/C=C1\SC(=S)N(NC(=O)c2ccncc2)C1=O)=C\c1ccccc1
IC50 [8]: 14.5 µM (active)

O=C(Nc1ccc(C(=O)O)cc1)/C(=C\c1ccc([N+](=O)[O-])cc1)NC(=O)c1ccc(Br)cc1
IC50 (Fatty acid synthase [2]): 2.05 µM (active)
IC50 (Fatty acid synthase [3]): 1.21 µM (active)

NC1=C(c2nc3ccccc3s2)C(=O)CN1Cc1ccccc1
EC50 [13]: > 120 µM (not active)
EC50 [14]: 92 µM (active)
EC50 (H4): > 120 µM (not active)

CCS(=O)(=O)C1=NN2C(=N)/C(=C\c3ccc(OS(=O)(=O)c4ccccc4)cc3)C(=O)N=C2S1
IC50 [8]: 6.95 µM (active)

O=C(COC(=O)c1cc([N+](=O)[O-])ccc1N1CCOCC1)Nc1cccc(F)c1
IC50 (Fatty acid synthase [2]): 1.1 µM (active)
IC50 (Fatty acid synthase [3]): 0.917 µM (active)

CC(C)c1ccc(N(C(=O)c2csnn2)C(C(=O)NC(C)(C)C)c2ccncc2)cc1 (stereo not given)
EC50 [13]: 5.54 µM (active)
EC50 [14]: > 120 µM (not active)
EC50 (H4): 22.6 µM (inconclusive)

Cc1cc(C)c(C#N)c(SC[S+]([O-])Cc2ccc(Cl)cc2)n1 (stereo not given)
IC50 (Fatty acid synthase [2]): 5.88 µM (active)
IC50 (Fatty acid synthase [3]): 5.54 µM (active)
